Common to all, as to assay type: in vivo, mice (Std:ddY, male)
For assay [1], the system named is pain threshold (tail-pressure). As to the kind of experiment: Analgesic activity by the tail-pressure method (s.c.). The note with it: mouse, 10 mg/10 ml at 10 ml/kg s.c., 1 hour after administration, mean ± standard error. Here is the method:
(1) Measurement of Analgesic Activity by the Tail-Pressure Method
Std:ddY Strain male mice (20-25 g) were fasted for one day before the experiment, and were used. After test compounds shown in Table 1 was formed to a salt with tartaric acid, this salt was dissolved in 0.9% physiological saline solutions at the rate of 10 mg/10 ml to give the test compoun d solution . As a control, 0.9% physiological saline solution was used. A tail-pressure apparatus was used in this experiments. Before the administration of test compounds, the pain threshold was measured twice at intervals of 30 minutes and those mice indicating a pain threshold of 50 to 100 mmHg were selected and used. The pain threshold of each mouse was measured at 1 hour after test compound solution mentioned above was administered at 10 ml/kg, s.c. 0.9% Physiological saline solution as a control was administered at 10 ml/kg, s.c . The results were described as an inhibition rate (%) obtained from the following equation. Cutoff level of pressure was defined to be 230 mmHg for the prevention of the damage of mouse tail.
Inhibition rate (%)=(A-B)×100/(C-B)
A: Pain threshold (mmHg) after the administration of test compound solution
B: Pain threshold (mmHg) before the administration of test compound solution
C: Cutoff pressure (230 mmHg)

For assay [2], the system named is nociceptive response (licking). Kind of assay: Analgesic activity by the hot-plate method. The settings on record: mouse, 52° C. plate, solution 10 mg/10 ml, mean ± standard error. Here is the method:
Measurement of Analgesic Activity by the Hot-Plate Method
Std:ddY Strain male mice (20-25 g) were fasted for one day before the experiment, and were used. After compounds shown in Table 1 were formed to the tartaric acid salts, these compounds were dissolved in 0.9% physiologocal saline solution at the rate of 10 mg/10 ml, respectively and these solution were used as test compound solution. In a control, 0.9% physiological saline solution was used. Mice were placed on a cyrindric hot plate (diameter: 22 cm, height: 11 cm) made of copper which was fixed in a water bath adjusted to 52° C. so that each animal's four paws came into contact with the plate and the time taken to show the nociceptive response (licking) as an index of pain was measured. Mice showing response latency above 25 seconds were excluded from the experiment. To prevent a burn damage of mouse tissue by heating, cutoff time of 50 seconds was defined. The results were described as an inhibition rate (%) obtained from the following equation.
Inhibition rate (%)=(A-B)×100/(50-B)
A: Response latency (seconds) after the administration of test compound solution
B: Response latency (seconds) before the administration of test compound solution

Assay [3] deals with carrageenin-induced paw edema. Kind of assay: Antiinflammatory activity by the carrageenin-induced hind paw edema. The note with it: mouse, 30 mg/kg p.o., mean ± standard error, n = 6. Here is the method: Measurement of Antiinflammatory Activity by the Carrageenin-Induced Hind Paw Edema
Std:ddY Strain male mice (20-25 g) were fasted for one day before the experiment, and were used. After test compounds shown in Table 1 was formed to a salt with tartaric acid, this salt was dissolved in sterilized and distilled water at the rate of 30 mg/10 ml to give the test compound solution. As a control, sterilized and distilled water was used. One hour after the oral administration of test compound solutions, 25 μl of λ-carrageenin suspended in 0.9% physiological saline solution (0.5 mg/25 μl) was injected s.c. under the plantar surface of the right hind paw of a mouse and 25 μl of 0.9% physiological saline solution was injected s.c. under the plantar surface of the left hind paw of the same mouse. Three hours and five hours after carrageenin injection, the […] of the paw was measured with a dial gauge calliper. To the control group, One hour after the oral administration of sterilized and distilled water at the rate of 10 ml/kg, 25 μl of λ-carrageenin (0.5 mg/25 μl) suspended in 0.9% physiological saline solution was injected s.c. under the plantar surface of the right hind paw of a mouse and 25 μl of 0.9% physiological saline solution was injected s.c. under the plantar surface of the left hind paw of the same mouse and the later operation was done in the same manner as in the test compound dosing group mentioned above. The results were described as a swelling rate (%) obtained from the following equation.
Swelling rate (%)=(R-L)×100/L
R: the thickness of the right hind paw
L: the thickness of the left hind paw
For orientation: Carrageenan injected into the paw causes an acute inflammation.

In assay [4] the test system is pain threshold (tail-pressure). Kind of assay: Tail-pressure method, experiment combined with morphine antagonist (levallorphan). The settings on record: mean ± standard error. Here is the method: (4) Experiment Combined with Morphine Antagonist
Std:ddY Strain male mice (20-25 g) were fasted for one day before the experiment, and were used. In this experiment, the tartaric acid salt of a compound of number (2) in Table 1, morphine hydrochloride and levallorphan hydrochloride of an opioid antagonist were used. The tartaric acid salt of a compound of number (2) was dissolved in 0.9% physiological saline solution at the rate of 10 mg/2 ml. Morphine hydrochloride was dissolved in 0.9% physiological saline solution at the rate of 10 mg/2 ml. Levallorphan hydrochloride was dissolved in 0.9% physiological saline solution at the rate of 1 mg/10 ml. As a control, 0.9% physiological saline solution was used. A tail-pressure apparatus was used in this experiments. Before the administration of levallorphan hydrochloride, the pain threshold was measured twice at intervals of 30 minutes and those mice indicating a pain threshold of 50 to 100 mmHg were selected and used. Levallorphan hydrochloride solution mentioned above was administered s.c. at the rate of 10 ml/kg and, 30 minutes later, the above tartaric acid salt solution compound of number (2) or morphine hydrochloride solution was injected i.v. at the rate of 2 ml/kg, respectively. Each pain threshold was measured 10, 20 and 30 minutes after an intravenous injection. In control group, 0.9% physiological saline solution was injected i.v. at the rate of 2 ml/kg at 30 minutes after s.c. administration at 10 ml/kg of 0.9% physiological saline solution. In the single administration group of levallorphan hydrochloride, levallorphan hydrochloride solution mentioned above was administered s.c. at the rate of 10 ml/kg and, 30 minutes later, 0.9% physiological saline solution was injected i.v. at the rate of 2 ml/kg. The results were described in Table 10 as an inhibition rate (%) indicating in the preceding paragraph (1).

For assay [5], the system named is pain threshold (tail-pressure). Kind of assay: Tail-pressure method, comparison with morphine (i.v.). The note with it: mean ± standard error. The method, then: (2) Comparison with Morphine
Std:ddY Strain male mice (20-25 g) were fasted for one day before the experiment, and were used. In this experiment, the tartaric acid salt of a compound of number (2) in Table 1 and morphine hydrochloride as a possitive control were used. This tartaric acid salt was dissolved in 0.9% physiological saline solution at the rates of 5 mg/2 ml, 3 mg/2 ml and 1 mg/2 ml. Morphine hydrochloride was dissolved in 0.9% physiological saline solution at the rates of 5 mg/2 ml, 3 mg/2 ml and 1 mg/2 ml. As a negative control, 0.9% phisiological saline solution was used. A tail-pressure apparatus was used in this experiments. Before the administration of test compounds, the pain threshold was measured twice at intervals of 30 minutes and those mice indicating a pain threshold of 50 to 100 mmHg were selected and used. The pain threshold of each mouse was measured at 10, 20 and 30 minutes after test compound solution mentioned above was administered at 2 ml/kg, i.v. 0.9% Physiological saline solution as a control was administered i.v. The results were described as an inhibition rate (%) indicating in the preceding paragraph (1).

Assay [6] has as its system pain threshold (tail-pressure). Kind of assay: Tail-pressure method, experiment combined with morphine administration. The settings on record: mean ± standard error, n = 7. Here is the method:
(3) Experiment Combined with Morphine Administration
Std:ddY Strain male mice (20-25 g) were fasted for one day before the experiment, and were used. In this experiment, the tartaric acid salt of a compound of number (2) in Table 1 and morphine hydrochloride were used. The tartaric acid salt of a compound of number (2) was dissolved in 0.9% physiological saline solution at the rate of 7 mg/10 ml. Morphine hydrochloride was dissolved in 0.9% physiological saline solution at the rates of 5 mg/2 ml, 3 mg/2 ml and 1 mg/2 ml. As a control, 0.9% phisiological saline solution was used. A tail-pressure apparatus was used in this experiments. Before the administration of test compounds, the pain threshold was measured twice at intervals of 30 minutes and those mice indicating a pain threshold of 50 to 100 mmHg were selected and used. Mice was divided in the following four groups, (i) control group, (ii) the administration group of the tartaric acid salt of a compound of number (2), (iii) the administration group of morphine hydrochloride and (iv) the combined administration group with the tartaric acid salt of a compound of number (2) and morphine hydrochloride. In the administration group of the tartaric acid salt of a compound of number (2), 0.9% physiological saline solution of this tartaric acid salt mentioned above was injected s.c. at the rate of 10 ml/kg and, 30 minutes later, 0.9% physiological saline solution was injected i.v. at the rate of 2 ml/kg. In the administration group of morphine hydrochloride, 0.9% physiological saline solution was injected s.c. at the rate of 10 ml/kg and, 30 minutes later, the above physiological saline solution of morphine hydrochloride was injected i.v. at the rate of 2 ml/kg. In the combined administration group with the tartaric acid salt of a compound of number (2) and morphine hydrochloride,the above physiological saline solution of the tartaric acid salt of a compound of number (2) was injected s.c. at the rate of 10 ml/kg and, 30 minutes later, the above physiological saline solution of morphine hydrochloride was injected i.v. at the rate of 2 ml/kg. In control group, 0.9% physiological saline solution was injected s.c. at the rate of 10 ml/kg and, 30 minutes later, 0.9% physiological saline solution was injected i.v. at the rate of 2 ml/kg. Each pain threshold was measured 10, 20 and 30 minutes after an intravenous injection. The results were described in Table 9 as an inhibition rate (%) indicating in the preceding paragraph (1).

In the case of `CCN1CC2(COC)C(OC(C)=O)CC(OC)C34C5CC6(O)C(OC)C(OC(C)=O)C(O)(C5C6OC(=O)c5ccc(Cl)cc5)C(C(OC)C23)C14` (stereo not shown) [(4), 3,15-di-O-acetyl-14-O-p-chlorobenzoylaconine], the “Inhibition rate (tail-pressure method)” value in assay [1] is on record as 29 ± 8%. For the same molecule, in assay [2], the “Inhibition rate (hot-plate method)” value turned out to be 35 ± 9%. Moreover, the Swelling rate in assay [3] (3 hour) stood at 50 ± 7%; in assay [3] (5 hour) it was 55 ± 9%.
`C=CCN1CC[C@]23CCCC[C@H]2[C@H]1Cc1ccc(O)cc13` [levallorphan]: the Inhibition rate in assay [4] (levallorphan 1 mg/kg s.c. alone, 10 min after i.v. injection) was 3 ± 4%; in assay [4] (levallorphan 1 mg/kg s.c. alone, 20 min after i.v. injection), -3 ± 4%; in assay [4] (levallorphan 1 mg/kg s.c. alone, 30 min after i.v. injection), 1 ± 3%.
In the case of `CN1CC[C@]23c4c5ccc(O)c4O[C@H]2[C@@H](O)C=C[C@H]3[C@H]1C5` [morphine, reference compound], the Inhibition rate is on record as 1 ± 2% in assay [5] (1 mg/kg i.v., 10 minutes); 2 ± 2% in assay [5] (1 mg/kg i.v., 20 minutes); 2 ± 1% in assay [5] (1 mg/kg i.v., 30 minutes); 13 ± 7% in assay [5] (3 mg/kg i.v., 10 minutes); 18 ± 10% in assay [5] (3 mg/kg i.v., 20 minutes); 12 ± 8% in assay [5] (3 mg/kg i.v., 30 minutes). The Inhibition rate is recorded as 38 ± 12% in assay [5] (5 mg/kg i.v., 10 minutes); 30 ± 10% in assay [5] (5 mg/kg i.v., 20 minutes); 29 ± 12% in assay [5] (5 mg/kg i.v., 30 minutes); 10 ± 1% in assay [4] (10 mg/kg i.v., with levallorphan 1 mg/kg s.c. 30 minutes before, 10 min); 10 ± 7% in assay [4] (10 mg/kg i.v., with levallorphan 1 mg/kg s.c. 30 minutes before, 20 min); 20 ± 6% in assay [4] (10 mg/kg i.v., with levallorphan 1 mg/kg s.c. 30 minutes before, 30 min). The Inhibition rate in assay [4] (10 mg/kg i.v., without levallorphan, 10 min) is 70 ± 13%; in assay [4] (10 mg/kg i.v., without levallorphan, 20 min) it was 73 ± 9%; in assay [4] (10 mg/kg i.v., without levallorphan, 30 min) it was 65 ± 12%; in assay [6] (morphine 1 mg/kg i.v. alone, 10 min) it was 2 ± 2%; in assay [6] (morphine 1 mg/kg i.v. alone, 20 min), 3 ± 4%; in assay [6] (morphine 1 mg/kg i.v. alone, 30 min), 1 ± 2%. Further, the Inhibition rate in assay [6] (morphine 3 mg/kg i.v. alone, 10 min) was 11 ± 8%; in assay [6] (morphine 3 mg/kg i.v. alone, 20 min), 15 ± 9%; in assay [6] (morphine 3 mg/kg i.v. alone, 30 min) it was 10 ± 6%; in assay [6] (morphine 5 mg/kg i.v. alone, 10 min), 36 ± 10%; in assay [6] (morphine 5 mg/kg i.v. alone, 20 min), 32 ± 11%; in assay [6] (morphine 5 mg/kg i.v. alone, 30 min), 26 ± 8%.
